For this test, the system named is CD2F1 mice, L1210 leukemia ip, survival T/C. Description: NCI In Vivo Anticancer Drug Screen. Data for tumor model L1210 Leukemia (intraperitoneal) in CD2F1 (CDF1) mice. The conditions noted are these: higher = longer survival. The method in brief:
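Transplantable tumor in mice; compound-treated vs vehicle-treated groups. Read-out = treated/control ratio of the measured endpoint.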

Setting [1] is: endpoint: mean survival time, dose: 6.25 mg/kg/injection, schedule: Q01DX009 (ip), vehicle: saline with Tween-80.
Where [2] appears, read: endpoint: mean survival time, dose: 12.5 mg/kg/injection, schedule: Q01DX009 (ip), vehicle: saline with Tween-80.
[3] abbreviates: endpoint: mean survival time, dose: 25.0 mg/kg/injection, schedule: Q01DX009 (ip), vehicle: saline with Tween-80.
[4] abbreviates: endpoint: mean survival time, dose: 50.0 mg/kg/injection, schedule: Q01DX009 (ip), vehicle: saline with Tween-80.
Setting [5] is: endpoint: mean survival time, dose: 100.0 mg/kg/injection, schedule: Q01DX009 (ip), vehicle: saline with Tween-80.
Where [6] appears, read: endpoint: mean survival time, dose: 100.0 mg/kg/injection, schedule: Q04DX003 (ip), vehicle: saline with Tween-80.
[7] abbreviates: endpoint: mean survival time, dose: 100.0 mg/kg/injection, schedule: Q04DX002 (ip), vehicle: saline with Tween-80.
The mark [8] stands for this setting: endpoint: mean survival time, dose: 200.0 mg/kg/injection, schedule: Q04DX002 (ip), vehicle: saline with Tween-80.
The mark [9] stands for this setting: endpoint: mean survival time, dose: 400.0 mg/kg/injection, schedule: Q04DX002 (ip), vehicle: saline with Tween-80.

Values joined by “and” are separate entries in the source; they are usually repeats but may differ in a detail not shown here. Equal values may be shown once. Toxic doses and inconclusive results are not listed.

`O=Cc1c(O)c2ccccc2[nH]c1=O`: the T/C under setting [1] was 101 % of control; the T/C under setting [2] is 103 % of control; the T/C under setting [3] was 103 % of control; the T/C under setting [4] was 112 % of control; the T/C under setting [5] is 106 % of control; the T/C (endpoint: median survival time, dose: 12.0 mg/kg/injection, schedule: Q01DX009 (ip), vehicle: Klucel (hydroxypropylcellulose) (HPC)) is 98 % of control. Also, the T/C runs as follows: (endpoint: median survival time, dose: 25.0 mg/kg/injection, schedule: Q01DX009 (ip), vehicle: Klucel (hydroxypropylcellulose) (HPC)) 105 % of control; (endpoint: median survival time, dose: 50.0 mg/kg/injection, schedule: Q01DX009 (ip), vehicle: Klucel (hydroxypropylcellulose) (HPC)) 113 % of control; (endpoint: median survival time, dose: 100.0 mg/kg/injection, schedule: Q01DX009 (ip), vehicle: Klucel (hydroxypropylcellulose) (HPC)) 104 % of control.

With `Cc1ccc(S(=O)(=O)NN=C2CCC3(CC2)c2ccccc2-c2ccccc23)cc1`, the T/C was 96 % of control (endpoint: mean survival time, dose: 100.0 mg/kg/injection, schedule: Q01DX001 (ip), vehicle: Klucel (hydroxypropylcellulose) (HPC)); 96 % of control (endpoint: mean survival time, dose: 200.0 mg/kg/injection, schedule: Q01DX001 (ip), vehicle: Klucel (hydroxypropylcellulose) (HPC)); 98 % of control (endpoint: mean survival time, dose: 400.0 mg/kg/injection, schedule: Q01DX001 (ip), vehicle: Klucel (hydroxypropylcellulose) (HPC)).

For the compound `C=C1C(O)C2(O)OCC34C(CC5C(C)=CC(=O)C(O)C5(C)C23)OC(=O)C(OC(=O)C/C=C/CCCCCCCC)C14` (stereo not given), the T/C runs as follows: (endpoint: median survival time, dose: 2.0 mg/kg/injection, schedule: Q01DX005 (ip), vehicle: saline + alcohol) 113 % of control; (endpoint: median survival time, dose: 4.0 mg/kg/injection, schedule: Q01DX005 (ip), vehicle: saline + alcohol) 119 % of control; (endpoint: median survival time, dose: 8.0 mg/kg/injection, schedule: Q01DX005 (ip), vehicle: saline + alcohol) 119 % of control and 124 % of control.

On to `CCCCN(CCCC)C(Cl)=Nc1ccccc1`, for which the T/C reads like this: (endpoint: mean survival time, dose: 6.25 mg/kg/injection, schedule: Q01DX009 (ip), vehicle: Klucel (hydroxypropylcellulose) (HPC)) 95 % of control and 105 % of control; (endpoint: mean survival time, dose: 12.5 mg/kg/injection, schedule: Q01DX009 (ip), vehicle: Klucel (hydroxypropylcellulose) (HPC)) 92 % of control and 104 % of control; (endpoint: mean survival time, dose: 25.0 mg/kg/injection, schedule: Q01DX009 (ip), vehicle: Klucel (hydroxypropylcellulose) (HPC)) 94 % of control and 95 % of control; (endpoint: mean survival time, dose: 50.0 mg/kg/injection, schedule: Q01DX009 (ip), vehicle: Klucel (hydroxypropylcellulose) (HPC)) 94 % of control and 95 % of control; (endpoint: mean survival time, dose: 100.0 mg/kg/injection, schedule: Q01DX009 (ip), vehicle: Klucel (hydroxypropylcellulose) (HPC)) 93 % of control; (endpoint: mean survival time, dose: 200.0 mg/kg/injection, schedule: Q01DX009 (ip), vehicle: Klucel (hydroxypropylcellulose) (HPC)) 90 % of control.

Regarding `CCCCCCCCCCCCOC(=O)C[n+]1cccc(C(=O)Nc2ccccc2)c1`, the T/C was 95 % of control under setting [3] and 102 % of control under setting [6].

For the compound `COc1ccc([N+](=O)[O-])cc1NC(=O)Nc1cccc(Cl)c1`, the T/C is, setting by setting: under setting [7], 91 % of control; under setting [8], 97 % of control; under setting [9], 91 % of control.

As for `COc1c(C)c2c(c(OC(C)=O)c1CC(=O)C(C)(O)CCC(=O)O)C(=O)OC2` (stereo not given), the T/C under setting [7] is 103 % of control, the T/C under setting [8] is 96 % of control and the T/C under setting [9] was 112 % of control.

As for `COc1ccc(/C=C(\C#N)c2ccc(C)cc2)cc1OC`, the T/C was 101 % of control under setting [5]; 108 % of control (endpoint: mean survival time, dose: 200.0 mg/kg/injection, schedule: Q01DX009 (ip), vehicle: saline with Tween-80); 107 % of control (endpoint: mean survival time, dose: 400.0 mg/kg/injection, schedule: Q01DX009 (ip), vehicle: saline with Tween-80).

With `Cn1c2c(c3ccccc31)CCCC2=O`, the T/C by setting is: (endpoint: mean survival time, dose: 100.0 mg/kg/injection, schedule: Q01DX001 (ip), vehicle: saline) 106 % of control; (endpoint: mean survival time, dose: 200.0 mg/kg/injection, schedule: Q01DX001 (ip), vehicle: saline) 97 % of control; (endpoint: mean survival time, dose: 400.0 mg/kg/injection, schedule: Q01DX001 (ip), vehicle: saline) 93 % of control.

In the case of `c1ccc(C2=C(c3ccccc3)OCCO2)cc1`, the T/C reads like this: (endpoint: mean survival time, dose: 100.0 mg/kg/injection, schedule: Q01DX001 (ip), vehicle: saline with Tween-80) 110 % of control; (endpoint: mean survival time, dose: 200.0 mg/kg/injection, schedule: Q01DX001 (ip), vehicle: saline with Tween-80) 89 % of control; (endpoint: mean survival time, dose: 400.0 mg/kg/injection, schedule: Q01DX001 (ip), vehicle: saline with Tween-80) 92 % of control.

On to `COc1cc(N=C(N)N=C(N)N)c2ncccc2c1`, for which the T/C (endpoint: mean survival time, dose: 100.0 mg/kg/injection, schedule: Q04DX002 (ip), vehicle: saline) is 90 % of control and the T/C (endpoint: mean survival time, dose: 200.0 mg/kg/injection, schedule: Q04DX002 (ip), vehicle: saline) is 90 % of control.

Take `NS(=O)(=O)c1ccc(SSc2ccc(S(N)(=O)=O)cc2[N+](=O)[O-])c([N+](=O)[O-])c1`: the T/C reads like this: (endpoint: mean survival time, dose: 12.5 mg/kg/injection, schedule: Q01DX009 (ip), vehicle: other) 95 % of control; (endpoint: mean survival time, dose: 25.0 mg/kg/injection, schedule: Q01DX009 (ip), vehicle: other) 95 % of control; (endpoint: mean survival time, dose: 50.0 mg/kg/injection, schedule: Q01DX009 (ip), vehicle: other) 96 % of control; (endpoint: mean survival time, dose: 100.0 mg/kg/injection, schedule: Q01DX009 (ip), vehicle: other) 98 % of control; (endpoint: mean survival time, dose: 200.0 mg/kg/injection, schedule: Q01DX009 (ip), vehicle: other) 95 % of control.

For `O=C(Nc1ccc(C2=NCCN2)cc1)c1ccc(C(=O)Nc2ccc(C3=NCCN3)cc2)c([N+](=O)[O-])c1`, the T/C by setting is: (endpoint: mean survival time, dose: 5.0 mg/kg/injection, schedule: Q01DX007 (ip), vehicle: saline) 124 % of control; (endpoint: mean survival time, dose: 5.0 mg/kg/injection, schedule: Q03DX003 (ip), vehicle: saline) 107 % of control; (endpoint: mean survival time, dose: 5.0 mg/kg/injection, schedule: Q04DX003 (ip), vehicle: saline) 112 % of control; (endpoint: mean survival time, dose: 8.0 mg/kg/injection, schedule: Q01DX009 (ip), vehicle: saline) 158 % of control; (endpoint: mean survival time, dose: 10.0 mg/kg/injection, schedule: Q01DX007 (ip), vehicle: saline) 155 % of control; (endpoint: mean survival time, dose: 10.0 mg/kg/injection, schedule: Q01DX009 (ip), vehicle: saline) 163 % of control. The T/C was 113 % of control (endpoint: mean survival time, dose: 10.0 mg/kg/injection, schedule: Q03DX003 (ip), vehicle: saline); 112 % of control (endpoint: mean survival time, dose: 10.0 mg/kg/injection, schedule: Q04DX003 (ip), vehicle: saline); 271 % of control (endpoint: mean survival time, dose: 16.0 mg/kg/injection, schedule: Q01DX009 (ip), vehicle: saline); 181 % of control (endpoint: mean survival time, dose: 20.0 mg/kg/injection, schedule: Q01DX007 (ip), vehicle: saline); 225 % of control (endpoint: mean survival time, dose: 20.0 mg/kg/injection, schedule: Q01DX009 (ip), vehicle: saline); 115 % of control (endpoint: mean survival time, dose: 20.0 mg/kg/injection, schedule: Q04DX003 (ip), vehicle: saline).

On to `O=C([O][Hg][C](F)(F)F)C(F)(F)F`, for which, under “endpoint: mean survival time, dose: 6.25 mg/kg/injection, schedule: Q04DX003 (ip), vehicle: saline”, the T/C was 98 % of control.

On to `CC(C)=CC(=O)CC(O)(C(F)(F)F)C(F)(F)Cl` (stereo not given), for which the T/C by setting is: (endpoint: mean survival time, dose: 100.0 mg/kg/injection, schedule: Q04DX003 (ip), vehicle: Klucel (hydroxypropylcellulose) (HPC)) 98 % of control; (endpoint: mean survival time, dose: 200.0 mg/kg/injection, schedule: Q04DX003 (ip), vehicle: Klucel (hydroxypropylcellulose) (HPC)) 93 % of control.

For the compound `NC(=O)C(C(N)=O)c1ccnc2ccccc12`, the T/C (endpoint: mean survival time, dose: 6.25 mg/kg/injection, schedule: Q01DX001 (ip), vehicle: saline with Tween-80) was 102 % of control; the T/C under setting [1] is 97 % of control; the T/C (endpoint: mean survival time, dose: 12.5 mg/kg/injection, schedule: Q01DX001 (ip), vehicle: saline with Tween-80) is 103 % of control; the T/C under setting [2] was 93 % of control; the T/C (endpoint: mean survival time, dose: 25.0 mg/kg/injection, schedule: Q01DX001 (ip), vehicle: saline with Tween-80) is 96 % of control; the T/C under setting [3] was 93 % of control.

For the compound `NC(N)=Nc1ccc(C(=O)O)cc1`, the T/C under setting [6] is 100 % of control; the T/C (endpoint: mean survival time, dose: 200.0 mg/kg/injection, schedule: Q04DX003 (ip), vehicle: saline with Tween-80) was 95 % of control; the T/C (endpoint: mean survival time, dose: 400.0 mg/kg/injection, schedule: Q04DX003 (ip), vehicle: saline with Tween-80) is 88 % of control.

On to `NC(=O)C1C=CCC1` (stereo not given), for which the T/C is 104 % of control under setting [3]; 95 % of control (endpoint: mean survival time, dose: 25.0 mg/kg/injection, schedule: Q04DX002 (ip), vehicle: saline with Tween-80); 101 % of control under setting [4]; 100 % of control (endpoint: mean survival time, dose: 50.0 mg/kg/injection, schedule: Q04DX002 (ip), vehicle: saline with Tween-80); 101 % of control under setting [5]; 91 % of control under setting [7].

The record behind these values is PubChem BioAssay AID256 (DTP/NCI, 2004).
